# In US20190360054A1, “METHOD FOR DIAGNOSIS OF METASTATIC CANCER OR TAXANE-BASED DRUG-RESISTANT CANCER BY USING LMCD1 PROTEIN AND GENE CODING THEREFOR” (AICT (ADVANCED INSTITUTES OF CONVERGENCE TECHNOLOGY), priority 2016, published 2019):
# Key:
# [1] = tested on: LMCD1-overexpressing MCF10CA1a.cl1 cells; experiment: MTT assay of susceptibility to paclitaxel in LMCD1-overexpressing cells; format: cell-based, human; details: MCF10CA1a.cl1 cells when LMCD1 was overexpressed, 72 hours
# Experimental: To investigate whether LMCD1 protein-overexpressing breast cancer cells have resistance to a taxane-based anticancer agent, an MTT assay, which is used to evaluate cell viability, was performed on MCF-10CA1a.cl1, which are human MCF-10A-based breast cancer cell lines, and MDA-MB231. The MCF-10CA1a.cl1 and MDA-MB231 cell lines are characterized as malignant breast cancer cell lines with high metastasis.
# In particular, human MCF-10A-based breast cancer cell lines, i.e., MCF-10CA1a.cl1 and MDA-MB231, were maintained in a DMEM culture solution containing 10% fetal bovine serum and 1% penicillin/streptomycin (WeIGENE) in a CO2 incubator at 37° C.
# To overexpress the LMCD1 protein in cells, LMCD1 was cloned into retroviral vector pLPCX, and LMCD1 retrovirus was obtained using Plat-GP cells. The metastatic breast cancer cells were infected with the LMCD1 retrovirus, LMCD1 protein-overexpressing cells were selected using puromycin, and then the selected cells were incubated in a DMEM culture solution containing 10% fetal bovine serum and 1% penicillin/streptomycin (WeIGENE) in a CO2 incubator at 37° C.
# The cells were seeded in 96 wells at a density of 3,000 cells per well and incubated for 24 hours. […] Absorbance at 580 nm was measured using a 96-well microplate detector (Molecular Devices).
# [2] = Production of paclitaxel-resistant cells by repeated paclitaxel treatment; format: cell-based; details: paclitaxel raised in increments of 0.5 nM over passages; read-out: IC50 value of paclitaxel at which the resistant cells did not die
# Experimental: In particular, parental cells were treated with paclitaxel at a small concentration of 0.5 nM, and alive cells were repeated treated with paclitaxel three or four times while being passaged.
# [3] = tested on: MCF10CA1a.cl1 cells, MDA-MB231 cells; experiment: MTT assay of paclitaxel resistance after Smad3 EPSM adenovirus infection; format: cell-based, human
# Description: GFP, Smad3 wild-type, C-terminal phosphorylation-inhibiting mutant (3SA), Smad3 linker phosphorylation-activating mutant (STD), and a Smad3 linker phosphorylation-inhibiting mutant (EPSM) adenovirus were supplied from Dr. Sushil G. Rane (NIDDK, NIH, Bethesda, Md.). To measure transduction efficiency, GFP adenovirus was used as a control. The cells were transfected with 75 to 100 virus particles/cell in a cell solution, and each transfection procedure was repeated three times.
# In particular, MCF10CA1a.cl1 cells, MDA-MB231 cells, and the cells produced according to Example 3-1 were seeded in 96-wells at a density of 3,000 cells/well and incubated for 24 hours. The culture solution was removed and a culture solution containing paclitaxel or docetaxel was added to each well to a final volume of 100 μl/well. After incubation for 72 hours, the culture solution was removed from the culture, and 0.5 mg/ml of 3-(4,5-dimethylthiazol-2-yl)-2,5-diphenyltetrazolium bromide (MTT) was added to each well, followed by incubation for 2 hours. Media containing an MTT solution was carefully removed, and 200 μl of dimethyl sulfoxide was added to each well, followed by incubation at room temperature for 5 minutes. Absorbance at 580 nm was measured using a 96-well microplate detector (Molecular Devices).
# [4] = tested on: MCF10CAT1k.cl2 (M-II) and MCF10CA1a.cl1 cells; experiment: MTT assay of paclitaxel resistance after treatment with LMCD1-containing conditioned media; format: cell-based, human; details: cells treated with conditioned media of LMCD1-overexpressing MCF10CA1a.cl1 cells
# Experimental: For MTT assay to examine resistance to paclitaxel, the cells were seeded in 96 wells at a density of 3,000 cells per well and incubated for 24 hours. The culture solution was removed, and a culture solution containing the concentrated conditioned media acquired from LPCX and LMCD1-overexpressing MCF10CA1a.cl1 cells was added to each well to a final volume of 100 μl/well. After incubation for 72 hours, the culture solution was removed from the culture, and 0.5 mg/ml of 3-(4,5-dimethylthiazol-2-yl)-2,5-diphenyltetrazolium bromide (MTT) was added to each well, followed by incubation for 2 hours. PBS containing an MTT solution was carefully removed, and 200 μl of dimethyl sulfoxide was added to each well, followed by incubation at room temperature for 5 minutes. Absorbance at 580 nm was measured using a 96-well microplate detector (Molecular Devices).
# [5] = tested on: LMCD1 promoter in MCF10CA1a.cl1 cells; experiment: LMCD1 promoter luciferase assay with TGF-β stimulation; format: cell-based, human; details: 3 ng/ml TGF-β, 24 hours, Smad3 EPSM adenovirus-infected cells
# Experimental: In particular, for the LMCD1 promoter analysis, MCF10CA1a.cl1 cells were infected with GFP and Smad3. EPSM adenovirus for 2 days, and then transiently transfected with an Lmcd1 promoter using FuGENE HD (Promega). 24 hours before harvesting, the cells were stimulated with 3 ng/ml of TGF-β. Luciferase activity was analyzed using a Luciferase Assay System kit (Promega) in accordance with the manufacturer's protocol. All assays were performed in triplicate, and all values were normalized to transfection efficiency as determined by β-galactosidase activity.
# [6] = tested on: LMCD1 mRNA in MDA-MB231 cells; experiment: RT-PCR of LMCD1 mRNA after TGF-β treatment; format: cell-based, human; details: 5 ng/ml TGF-β, 24 hours, Smad3 EPSM adenovirus-infected cells
# Experimental: For the measurement of LMCD1 mRNA, MDA-MB231 cells were infected with GFP and Smad3. EPSM adenovirus for 2 days, and then 2 hours before TGF-β treatment, the cells were pre-treated with 10 μM of SB431542 and treated with 5 ng/ml of TGF-β, followed by incubation for 24 hours. Total RNA was extracted from the cells using a TRIzol reagent (Invitrogen) in accordance with the manufacturer's protocol. The extracted RNA was converted into cDNA using M-MLV reverse transcriptase (Promega). The cDNA was synthesized and subjected to RT-PCR using a specific primer pair by using an AccuPower™ PCR PreMix kit (Bioneer Co.). Gene mRNAs were normalized to GAPDH.
Compound,"resistance to paclitaxel (cell viability, MTT) [1]",IC50 [2] [nM],susceptibility to paclitaxel (MTT) ([3]; LMCD1 depleted in Smad3 EPSM adenovirus-infected cells (EPSM-SV-shLmcd1 #1)),"paclitaxel resistance (cell viability, MTT) ([3]; Smad3 linker phosphorylation blocked (EPSM adenovirus), compared to control)",resistance to paclitaxel (MTT) [4],LMCD1 transcriptional activity (luciferase) [5],LMCD1 mRNA expression level [6]
CC(=O)O[C@H]1C(=O)[C@@]2(C)[C@H]([C@H](OC(=O)c3ccccc3)[C@]3(O)C[C@H](OC(=O)[C@H](O)[C@@H](NC(=O)c4ccccc4)c4ccccc4)C(C)=C1C3(C)C)[C@]1(OC(C)=O)CO[C@@H]1C[C@@H]2O [paclitaxel],increased,50,restored,induced,significantly increased,–,–
TGF-β,–,–,–,–,–,increased,increased
